# Assay results taken from US20250368666A1, “INDAZOLE COMPOUNDS” (TYRA BIOSCIENCES, INC., priority 2022, published 2025).
# Experiments:
# Assay in all cases: Kinase binding assay (kinase-tagged T7 phage, affinity beads, qPCR), Kd
# FGFR3 = biological target: T1, FGFR3 (Homo sapiens, UniProt P22607); conditions: read-out: FGFR3 (Kd nM)
# T1 construct: made in house; host or cells: E. coli (BL21-derived), T7 phage
# Procedure, shortened: (§1)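 Competition binding; kinase-tagged T7 phage lysate vs immobilised biotinylated ligand on streptavidin beads, 0.9% DMSO final. 11-pt 3-fold dilutions, 3 DMSO controls. qPCR of eluted kinase; Kd by Hill fit, slope −1.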
# FGFR1 = biological target: T2, FGFR1 (Homo sapiens, UniProt P11362); conditions: read-out: FGFR1 (Kd nM)
# T2 construct: made in house; host or cells: E. coli (BL21-derived), T7 phage
# T2 sequence (P11362 22-822): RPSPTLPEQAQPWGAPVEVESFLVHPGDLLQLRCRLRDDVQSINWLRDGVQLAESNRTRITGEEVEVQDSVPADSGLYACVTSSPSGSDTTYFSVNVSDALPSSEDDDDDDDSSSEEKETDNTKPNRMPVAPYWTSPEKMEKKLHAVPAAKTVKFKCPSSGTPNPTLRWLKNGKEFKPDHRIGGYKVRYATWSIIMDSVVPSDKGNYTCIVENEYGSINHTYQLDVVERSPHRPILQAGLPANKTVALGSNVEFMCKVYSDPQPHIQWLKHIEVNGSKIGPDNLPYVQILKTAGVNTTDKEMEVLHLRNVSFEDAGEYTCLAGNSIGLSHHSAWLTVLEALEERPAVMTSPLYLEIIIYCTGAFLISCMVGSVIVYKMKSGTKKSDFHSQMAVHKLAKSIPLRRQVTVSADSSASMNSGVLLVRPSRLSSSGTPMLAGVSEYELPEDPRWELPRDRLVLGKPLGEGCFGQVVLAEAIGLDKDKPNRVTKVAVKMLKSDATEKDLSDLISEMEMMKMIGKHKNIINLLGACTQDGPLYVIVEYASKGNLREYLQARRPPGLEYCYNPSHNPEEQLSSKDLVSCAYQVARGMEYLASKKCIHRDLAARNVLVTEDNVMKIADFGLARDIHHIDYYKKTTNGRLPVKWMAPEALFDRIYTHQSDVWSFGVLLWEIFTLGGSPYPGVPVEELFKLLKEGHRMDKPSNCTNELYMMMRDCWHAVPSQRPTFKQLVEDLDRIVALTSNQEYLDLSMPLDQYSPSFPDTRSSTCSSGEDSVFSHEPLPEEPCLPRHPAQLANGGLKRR
# Procedure, shortened: as §1
# FGFR3 (V555M) = biological target: T3, FGFR3 (V555M) (Homo sapiens, UniProt P22607, V555M); conditions: V555M mutant; read-out: FGFR3 (V555M) (Kd nM)
# T3 construct: made in house; host or cells: E. coli (BL21-derived), T7 phage
# T3 sequence (P22607 23-806 V555M): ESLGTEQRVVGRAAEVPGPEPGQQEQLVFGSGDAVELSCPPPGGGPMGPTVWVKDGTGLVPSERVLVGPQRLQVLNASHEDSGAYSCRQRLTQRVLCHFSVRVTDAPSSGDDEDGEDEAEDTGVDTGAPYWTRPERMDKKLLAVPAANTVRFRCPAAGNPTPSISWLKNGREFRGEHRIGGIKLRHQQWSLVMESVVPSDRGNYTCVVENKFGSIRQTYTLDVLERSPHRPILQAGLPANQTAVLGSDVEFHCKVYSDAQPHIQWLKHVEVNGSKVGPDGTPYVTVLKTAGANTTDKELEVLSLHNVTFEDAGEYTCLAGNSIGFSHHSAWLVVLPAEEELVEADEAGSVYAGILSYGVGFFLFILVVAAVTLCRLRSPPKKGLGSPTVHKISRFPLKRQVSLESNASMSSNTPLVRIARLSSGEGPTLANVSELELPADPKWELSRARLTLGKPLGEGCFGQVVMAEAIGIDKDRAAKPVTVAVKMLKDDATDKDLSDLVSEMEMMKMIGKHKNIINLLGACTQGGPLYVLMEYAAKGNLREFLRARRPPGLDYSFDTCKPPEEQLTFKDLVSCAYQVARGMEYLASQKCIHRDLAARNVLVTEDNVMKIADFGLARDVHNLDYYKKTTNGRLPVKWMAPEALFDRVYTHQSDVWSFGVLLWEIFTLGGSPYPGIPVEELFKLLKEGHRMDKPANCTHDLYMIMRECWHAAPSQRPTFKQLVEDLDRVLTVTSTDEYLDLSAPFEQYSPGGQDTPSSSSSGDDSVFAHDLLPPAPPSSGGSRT
# Procedure, shortened: as §1
# FGFR2 = biological target: T4, FGFR2 (Homo sapiens, UniProt P21802); conditions: read-out: FGFR2 (Kd nM)
# T4 construct: made in house; host or cells: E. coli (BL21-derived), T7 phage
# T4 sequence (P21802 22-821): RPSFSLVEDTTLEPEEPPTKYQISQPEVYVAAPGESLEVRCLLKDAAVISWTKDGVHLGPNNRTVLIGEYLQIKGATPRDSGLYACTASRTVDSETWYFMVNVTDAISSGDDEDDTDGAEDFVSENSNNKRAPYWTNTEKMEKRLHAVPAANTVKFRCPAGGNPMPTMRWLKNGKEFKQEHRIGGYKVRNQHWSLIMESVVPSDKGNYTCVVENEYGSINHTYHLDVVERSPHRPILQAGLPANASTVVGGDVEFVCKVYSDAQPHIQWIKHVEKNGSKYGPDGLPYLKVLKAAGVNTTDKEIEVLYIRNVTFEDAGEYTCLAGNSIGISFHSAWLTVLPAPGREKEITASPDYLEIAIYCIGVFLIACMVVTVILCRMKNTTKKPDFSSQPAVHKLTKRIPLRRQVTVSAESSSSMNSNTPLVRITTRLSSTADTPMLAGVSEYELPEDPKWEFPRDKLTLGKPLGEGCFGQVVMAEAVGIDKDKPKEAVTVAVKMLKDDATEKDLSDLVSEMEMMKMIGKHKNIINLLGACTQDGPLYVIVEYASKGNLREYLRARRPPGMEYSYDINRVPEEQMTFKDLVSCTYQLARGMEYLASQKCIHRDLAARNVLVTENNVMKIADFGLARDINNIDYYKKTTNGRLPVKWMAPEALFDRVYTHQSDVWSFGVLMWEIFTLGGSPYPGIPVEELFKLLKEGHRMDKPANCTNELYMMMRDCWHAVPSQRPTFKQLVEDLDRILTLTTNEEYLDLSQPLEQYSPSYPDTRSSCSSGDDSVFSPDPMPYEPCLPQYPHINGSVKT
# Procedure, shortened: as §1
# FGFR4 = biological target: T5, FGFR4 (Homo sapiens, UniProt P22455); conditions: read-out: FGFR4 (Kd nM)
# T5 construct: made in house; host or cells: E. coli (BL21-derived), T7 phage
# T5 sequence (P22455 22-802): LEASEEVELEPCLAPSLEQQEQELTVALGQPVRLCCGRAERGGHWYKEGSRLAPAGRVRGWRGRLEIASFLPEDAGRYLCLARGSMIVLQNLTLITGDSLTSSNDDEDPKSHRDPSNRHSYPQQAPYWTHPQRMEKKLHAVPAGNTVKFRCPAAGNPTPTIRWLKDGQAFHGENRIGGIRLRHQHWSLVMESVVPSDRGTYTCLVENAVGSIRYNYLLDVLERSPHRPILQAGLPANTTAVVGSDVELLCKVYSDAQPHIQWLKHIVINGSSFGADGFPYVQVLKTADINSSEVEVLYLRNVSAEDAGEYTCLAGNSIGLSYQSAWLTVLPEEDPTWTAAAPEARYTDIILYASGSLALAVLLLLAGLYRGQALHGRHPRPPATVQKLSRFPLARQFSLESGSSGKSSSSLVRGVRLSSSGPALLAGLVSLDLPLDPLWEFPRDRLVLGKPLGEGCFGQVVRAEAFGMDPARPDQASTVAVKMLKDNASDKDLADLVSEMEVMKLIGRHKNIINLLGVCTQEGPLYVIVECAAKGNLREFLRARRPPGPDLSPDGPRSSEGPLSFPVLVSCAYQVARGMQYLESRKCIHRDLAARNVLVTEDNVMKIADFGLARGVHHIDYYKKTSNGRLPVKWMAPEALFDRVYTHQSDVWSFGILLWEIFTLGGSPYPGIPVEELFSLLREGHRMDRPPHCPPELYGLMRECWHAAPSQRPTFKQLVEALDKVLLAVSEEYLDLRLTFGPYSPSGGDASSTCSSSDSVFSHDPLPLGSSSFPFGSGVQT
# Procedure, shortened: as §1
# T1 sequence (P22607 23-806): as the sequence (P22607 23-806 V555M) above, with M533V counted along it
compound,measurement,setting,value
"C[C@@H](O)CNC1(C)CN(c2ncc(-c3n[nH]c4ccc(O[C@H](C)c5c(Cl)cncc5Cl)c(F)c34)cc2F)C1 [Example 169, (R)-1-((1-(5-(5-((R)-1-(3,5-dichloropyridin-4-yl)ethoxy)-4-fluoro-1H-indazol-3-yl)-3-fluoropyridin-2-yl)-3-methylazetidin-3-yl)amino)propan-2-ol]",Kd,FGFR3,50 to 300 nM
same,Kd,FGFR1,300 to 1000 nM
same,Kd,FGFR3 (V555M),1 to 50 nM
same,Kd,FGFR2,> 1000 nM
same,Kd,FGFR4,50 to 300 nM
"C[C@@H](Oc1ccc2[nH]nc(-c3cnc(N4CC(C)(CP(C)(C)=O)C4)c(F)c3)c2c1F)c1c(Cl)cncc1Cl [Example 172, (R)-((1-(5-(5-(1-(3,5-dichloro-pyridin-4-yl)ethoxy)-4-fluoro-1H-inda-zol-3-yl)-3-fluoropyridin-2-yl)-3-methylazetidin-3-yl)methyl)dimethyl-phosphine oxide]",Kd,FGFR3,50 to 300 nM
same,Kd,FGFR1,300 to 1000 nM
same,Kd,FGFR3 (V555M),1 to 50 nM
same,Kd,FGFR2,50 to 300 nM
same,Kd,FGFR4,50 to 300 nM
"CC(C)NC1(C)CN(c2ccc(-c3n[nH]c4ccc(O[C@H](C)c5c(Cl)cncc5Cl)c(F)c34)cn2)C1 [Example 173, (R)-1-(5-(5-(1-(3,5-dichloropyridin-4-yl)ethoxy)-4-fluoro-1H-indazol-3-yl)pyridin-2-yl)-N-isopropyl-3-methylazetidin-3-amine]",Kd,FGFR3,50 to 300 nM
same,Kd,FGFR1,300 to 1000 nM
same,Kd,FGFR3 (V555M),1 to 50 nM
same,Kd,FGFR2,300 to 1000 nM
same,Kd,FGFR4,300 to 1000 nM
"C[C@@H](Oc1ccc2[nH]nc(-c3cnc(N4CC(C)(NCC5CC5)C4)c(F)c3)c2c1F)c1c(Cl)cncc1Cl [Example 174, (R)-N-(cyclo-propylmethyl)-1-(5-(5-(1-(3,5-dichloropyridin-4-yl)ethoxy)-4-fluoro-1H-indazol-3-yl)-3-fluoropyridin-2-yl)-3-methylazetidin-3-amine]",Kd,FGFR3,50 to 300 nM
same,Kd,FGFR1,300 to 1000 nM
same,Kd,FGFR3 (V555M),50 to 300 nM
same,Kd,FGFR2,> 1000 nM
same,Kd,FGFR4,50 to 300 nM
"C[C@@H](Oc1ccc2[nH]nc(-c3cnc(N4CC(C)(NCCO)C4)c(F)c3)c2c1F)c1c(Cl)cncc1Cl [Example 175, (R)-2-((1-(5-(5-(1-(3,5-dichloro-pyridin-4-yl)ethoxy)-4-fluoro-1H-indazol-3-yl)-3-fluoropyridin-2-yl)-3-methylazetidin-3-yl)amino)ethan-1-ol]",Kd,FGFR3,50 to 300 nM
same,Kd,FGFR1,> 1000 nM
same,Kd,FGFR3 (V555M),50 to 300 nM
same,Kd,FGFR2,> 1000 nM
same,Kd,FGFR4,50 to 300 nM
"C[C@H](O)CNC1(C)CN(c2ncc(-c3n[nH]c4ccc(O[C@H](C)c5c(Cl)cncc5Cl)c(F)c34)cc2F)C1 [Example 176, (S)-1-((1-(5-(5-((R)-1-(3,5-dichloropyridin-4-yl)ethoxy)-4-fluoro-1H-indazol-3-yl)-3-fluoropyridin-2-yl)-3-methylazetidin-3-yl)amino)propan-2-ol]",Kd,FGFR3,50 to 300 nM
same,Kd,FGFR1,300 to 1000 nM
same,Kd,FGFR3 (V555M),50 to 300 nM
same,Kd,FGFR2,> 1000 nM
same,Kd,FGFR4,50 to 300 nM
"C[C@@H](Oc1ccc2[nH]nc(-c3ccc(N4CC(C)(N5CCCC5)C4)nc3)c2c1F)c1c(Cl)cncc1Cl [Example 177, (R)-5-(1-(3,5-dichloropyridin-4-yl)ethoxy)-4-fluoro-3-(6-(3-methyl-3-(pyrrolidin-1-yl)azetidin-1-yl)pyridin-3-yl)-1H-indazole]",Kd,FGFR3,1 to 50 nM
same,Kd,FGFR1,50 to 300 nM
same,Kd,FGFR3 (V555M),1 to 50 nM
same,Kd,FGFR2,300 to 1000 nM
same,Kd,FGFR4,50 to 300 nM
"C[C@@H](Oc1ccc2[nH]nc(-c3cnc(N4CC(C)(CNCCO)C4)c(F)c3)c2c1)c1c(Cl)cncc1Cl [Example 178, (R)-2-(((1-(5-(5-(1-(3,5-dichloro-pyridin-4-yl)ethoxy)-1H-indazol-3-yl)-3-fluoropyridin-2-yl)-3-methylazetidin-3-yl)methyl)amino) ethanol]",Kd,FGFR3,1 to 50 nM
same,Kd,FGFR1,1 to 50 nM
same,Kd,FGFR3 (V555M),1 to 50 nM
same,Kd,FGFR2,1 to 50 nM
same,Kd,FGFR4,1 to 50 nM
"COc1cc2[nH]nc(-c3cnc(N4CC(C)(CP(C)(C)=O)C4)c(F)c3)c2cc1O[C@H](C)c1c(Cl)cncc1Cl [Example 179, (R)-((1-(5-(5-(1-(3,5-dichloro-pyridin-4-yl)ethoxy)-6-methoxy-1H-indazol-3-yl)-3-fluoropyridin-2-yl)-3-methylazetidin-3-yl)methyl)dimethyl-phosphine oxide]",Kd,FGFR3,1 to 50 nM
same,Kd,FGFR1,1 to 50 nM
same,Kd,FGFR3 (V555M),1 to 50 nM
same,Kd,FGFR2,1 to 50 nM
same,Kd,FGFR4,1 to 50 nM
"COc1cc2[nH]nc(-c3ccc(N4CC(C)(CP(C)(C)=O)C4)nc3)c2cc1O[C@H](C)c1c(Cl)cncc1Cl [Example 180, (R)-((1-(5-(5-(1-(3,5-dichloro-pyridin-4-yl)ethoxy)-6-meth-oxy-1H-inda-zol-3-yl)pyridin-2-yl)-3-methylazetidin-3-yl)methyl)dimethyl-phosphine oxide]",Kd,FGFR3,1 to 50 nM
same,Kd,FGFR1,1 to 50 nM
same,Kd,FGFR3 (V555M),1 to 50 nM
same,Kd,FGFR2,1 to 50 nM
same,Kd,FGFR4,1 to 50 nM
"C[C@@H](Oc1ccc2[nH]nc(-c3cnc(N4CC(C)(N5CCOCC5)C4)c(F)c3)c2c1F)c1c(Cl)cncc1Cl [Example 183, (R)-4-(1-(5-(5-(1-(3,5-dichloro-pyridin-4-yl)ethoxy)-4-fluoro-1H-indazol-3-yl)-3-fluoropyridin-2-yl)-3-methylazetidin-3-yl)morpholine]",Kd,FGFR3,50 to 300 nM
same,Kd,FGFR1,300 to 1000 nM
same,Kd,FGFR3 (V555M),50 to 300 nM
same,Kd,FGFR2,> 1000 nM
same,Kd,FGFR4,50 to 300 nM
"C[C@@H](Oc1ccc2[nH]nc(-c3cnc(N4CC(C)(N5CCC5)C4)c(F)c3)c2c1F)c1c(Cl)cncc1Cl [Example 184, (R)-5-(1-(3,5-dichloropyridin-4-yl)ethoxy)-4-fluoro-3-(5-fluoro-6-(3′-methyl-[1,3′-biazetidin]-1′-yl)pyridin-3-yl)-1H-indazole]",Kd,FGFR3,1 to 50 nM
same,Kd,FGFR1,300 to 1000 nM
same,Kd,FGFR3 (V555M),1 to 50 nM
same,Kd,FGFR2,300 to 1000 nM
same,Kd,FGFR4,50 to 300 nM
"C[C@@H](Oc1ccc2[nH]nc(-c3cnc(N4CC(C)(CN5CCCC5)C4)c(F)c3)c2c1F)c1c(Cl)cncc1Cl [Example 185, (R)-5-(1-(3,5-dichloropyridin-4-yl)ethoxy)-4-fluoro-3-(5-fluoro-6-(3-methyl-3-(pyrrolidin-1-ylmethyl)azetidin-1-yl)pyridin-3-yl)-1H-indazole]",Kd,FGFR3,50 to 300 nM
same,Kd,FGFR1,300 to 1000 nM
same,Kd,FGFR3 (V555M),50 to 300 nM
same,Kd,FGFR2,300 to 1000 nM
same,Kd,FGFR4,50 to 300 nM
"C[C@@H](Oc1cc2c(-c3ccc(N4CC(C)(CN5CCOCC5)C4)nc3)n[nH]c2cc1F)c1c(Cl)cncc1Cl [Example 186, (R)-4-((1-(5-(5-(1-(3,5-dichloro-pyridin-4-yl)ethoxy)-6-fluoro-1H-indazol-3-yl)pyridin-2-yl)-3-methylazetidin-3-yl)methyl)morpho-line]",Kd,FGFR3,1 to 50 nM
same,Kd,FGFR1,1 to 50 nM
same,Kd,FGFR3 (V555M),1 to 50 nM
same,Kd,FGFR2,1 to 50 nM
same,Kd,FGFR4,1 to 50 nM
"C[C@@H](Oc1ccc2[nH]nc(-c3ccc(N4CC(C)(CP(C)(C)=O)C4)nc3)c2c1F)c1c(Cl)cncc1Cl [Example 187, (R)-((1-(5-(5-(1-(3,5-dichloro-pyridin-4-yl)ethoxy)-4-fluoro-1H-indazol-3-yl)pyridin-2-yl)-3-methylazetidin-3-yl)methyl)dimethyl-phosphine oxide]",Kd,FGFR3,50 to 300 nM
same,Kd,FGFR1,> 1000 nM
same,Kd,FGFR3 (V555M),50 to 300 nM
same,Kd,FGFR2,300 to 1000 nM
same,Kd,FGFR4,300 to 1000 nM
"C[C@@H](Oc1cc2c(-c3ccc(N4CC(C)(CN5CCCC5)C4)nc3)n[nH]c2cc1F)c1c(Cl)cncc1Cl [Example 188, (R)-5-(1-(3,5-dichloropyridin-4-yl)ethoxy)-6-fluoro-3-(6-(3-methyl-3-(pyrrolidin-1-ylmethyl)azetidin-1-yl)pyridin-3-yl)-1H-indazole]",Kd,FGFR3,1 to 50 nM
same,Kd,FGFR1,1 to 50 nM
same,Kd,FGFR3 (V555M),1 to 50 nM
same,Kd,FGFR2,1 to 50 nM
same,Kd,FGFR4,1 to 50 nM
"CC(C)NCC1(C)CN(c2ccc(-c3n[nH]c4cc(F)c(O[C@H](C)c5c(Cl)cncc5Cl)cc34)cn2)C1 [Example 189, (R)-N-((1-(5-(5-(1-(3,5-dichloro-pyridin-4-yl)ethoxy)-6-fluoro-1H-indazol-3-yl)pyridin-2-yl)-3-methylazetidin-3-yl)methyl)propan-2-amine]",Kd,FGFR3,1 to 50 nM
same,Kd,FGFR1,1 to 50 nM
same,Kd,FGFR3 (V555M),1 to 50 nM
same,Kd,FGFR2,1 to 50 nM
same,Kd,FGFR4,1 to 50 nM
"CC(C)NCC1(C)CN(c2ccc(-c3n[nH]c4ccc(O[C@H](C)c5c(Cl)cncc5Cl)c(F)c34)cn2)C1 [Example 190, (R)-N-((1-(5-(5-(1-(3,5-dichloro-pyridin-4-yl)ethoxy)-4-fluoro-1H-indazol-3-yl)pyridin-2-yl)-3-methylazetidin-3-yl)methyl)propan-2-amine]",Kd,FGFR3,1 to 50 nM
same,Kd,FGFR1,300 to 1000 nM
same,Kd,FGFR3 (V555M),1 to 50 nM
same,Kd,FGFR2,300 to 1000 nM
same,Kd,FGFR4,300 to 1000 nM
"C[C@@H](Oc1ccc2[nH]nc(-c3ccc(N4CC(C)(CN5CCCC5)C4)nc3)c2c1F)c1c(Cl)cncc1Cl [Example 191, (R)-5-(1-(3,5-dichloropyridin-4-yl)ethoxy)-4-fluoro-3-(6-(3-methyl-3-(pyrrolidin-1-ylmethyl)azetidin-1-yl)pyridin-3-yl)-1H-indazole]",Kd,FGFR3,50 to 300 nM
same,Kd,FGFR1,300 to 1000 nM
same,Kd,FGFR3 (V555M),1 to 50 nM
same,Kd,FGFR2,300 to 1000 nM
same,Kd,FGFR4,300 to 1000 nM
"C[C@@H](Oc1ccc2[nH]nc(-c3ccc(N4CC(C)(NCCO)C4)nc3)c2c1F)c1c(Cl)cncc1Cl [Example 192, (R)-2-((1-(5-(5-(1-(3,5-dichloro-pyridin-4-yl)ethoxy)-4-fluoro-1H-inda-zol-3-yl)pyridin-2-yl)-3-methylazetidin-3-yl)amino)ethanol]",Kd,FGFR3,50 to 300 nM
same,Kd,FGFR1,300 to 1000 nM
same,Kd,FGFR3 (V555M),1 to 50 nM
same,Kd,FGFR2,300 to 1000 nM
same,Kd,FGFR4,300 to 1000 nM
